These results are taken from publication PMC6456411 (Angewandte Chemie (International ed. in English), 2019).

Like-named read-outs stand apart in the source and are kept apart here. Where only a bound is given, the exact number is not on record here.

Data set [1] concerns Saos-2 cells in 3D culture. The data set is described as follows: Cytotoxicity of chemotherapy drugs on 3D cell spheroids of Saos-2. It counts as cell-based.
The subject of data set [2] is co-culture of HS-5 and Saos-2 cells, 2D cell sheets. In words: Cytotoxicity of chemotherapy drugs on co-cultured 2D cell sheets. Format: cell-based. The conditions noted are these: co-culture 2D cell sheets, 24 h; for cell toxicity: within the tested concentrations.
The subject of data set [3] is co-culture of HS-5 and Saos-2 cells, 3D cell spheroids. The data set is described as follows: Cytotoxicity of chemotherapy drugs on co-cultured 3D spheroids. It counts as cell-based. The conditions noted are these: co-culture 3D cell spheroids, 24 h; for cell toxicity: within the tested concentrations.
Another data set has as its system Saos-2 cells. In words: Cytotoxicity of chemotherapy drugs on 2D cell culture of Saos-2.
Data set [4] deals with co-culture of HS-5 and Saos-2 cells. In words: Spheroid formation and live-dead assay in co-culture of HS-5 and Saos-2 cells. Format: cell-based. The conditions noted are these: treated for 48 h; 1P:2 300 μM, ratio 1:1.
The mark [5] stands for this setting: Homo sapiens, SAOS-2, 48 h, read-out: IC50 against Saos-2 cells.

Take `COc1cccc2c1C(=O)c1c(O)c3c(c(O)c1C2=O)C[C@@](O)(C(=O)CO)C[C@@H]3O[C@H]1C[C@H](N)[C@H](O)[C@H](C)O1` [Dox, doxorubicin]: the results for the IC50 (in data set [1] (setting [5]); in the data set on Saos-2 cells (setting [5])) were greater than 6 µM and 1.4 µM, respectively. Also, the “increase of IC50 in 3D culture than 2D culture” value in data set [1] (Saos-2 cells, 48 h) was “more than 3 times”. In addition, in data set [2] (5 μM), the cell killing entry is reported as “kills about half of cells”. The cell toxicity entry in data set [2] was “dosage dependent cell toxicity”; in data set [3], “little toxicity”. Also, in data set [3] (5 μM), the cell death result is “hardly causes cell death”.
As for `N.N.[Cl][Pt][Cl]` [cisplatin], the IC50 – broadly, the concentration at which inhibition is half-maximal – came to 33.3 µM in data set [1] (read-out: IC50 against Saos-2 cells, 3D culture, 48 h) and 12 µM in data set [1] (read-out: increase of IC50 in 3D culture, Saos-2 cells, 48 h, 3D versus 2D). The cell killing result in data set [2] (50 nM) is recorded as “kills about half of cells”. For the same compound, the results for the cell toxicity entry in data set [2] and in data set [3] were “dosage dependent cell toxicity” and “little toxicity”, respectively. In addition, the cell death result in data set [3] (50 nM) is listed as “hardly causes cell death”.
For the compound `CN[C@H](CC(C)C)C(=O)N[C@H]1C(=O)N[C@@H](CC(N)=O)C(=O)N[C@H]2C(=O)N[C@H]3C(=O)N[C@H](C(=O)N[C@H](C(=O)O)c4cc(O)cc(O)c4-c4cc3ccc4O)[C@H](O)c3ccc(c(Cl)c3)Oc3cc2cc(c3O[C@@H]2O[C@H](CO)[C@@H](O)[C@H](O)[C@H]2O[C@H]2C[C@](C)(N)[C@H](O)[C@H](C)O2)Oc2ccc(cc2Cl)[C@H]1O` [compound 2, vancomycin], the “morphology of co-cultured HS-5 and Saos-2 cells” value in data set [4] is “remain a 2D cell sheet”. Also, the “influence on cytotoxicity of chemotherapy drugs against Saos-2 cells” value in the data set with Saos-2 cells (co-incubating with chemotherapy drugs) is “hardly influence their cytotoxicity”.
Turning to `CC(=O)O[C@H]1C(=O)[C@@]2(C)[C@H]([C@H](OC(=O)c3ccccc3)[C@]3(O)C[C@H](OC(=O)[C@H](O)[C@@H](NC(=O)c4ccccc4)c4ccccc4)C(C)=C1C3(C)C)[C@]1(OC(C)=O)CO[C@@H]1C[C@@H]2O` [taxol], the cell viability – broadly, a read-out of living cells in per cent, often relative to untreated cells – in data set [1] (Saos-2 3D spheroids, 40 nM, 48 h) is listed as 94.25%; in the data set on Saos-2 cells (Saos-2 2D sheet, 40 nM, 48 h), 60.84%.
